The values that follow come from ChEMBL document CHEMBL5550216, “Discovery of Triazolopyrimidine Derivatives as Selective P2X3 Receptor Antagonists Binding to an Unprecedented Allosteric Site as Evidenced by Cryo-Electron Microscopy” (J Med Chem, 2024).

Data set [1] can be described thus: Metabolic stability in human liver microsomes assessed as compound remaining at 100 uM preincubated for 10 mins followed by NADPH addition and measured after 30 mins by LC-MS/MS analysis. It counts as ADME, Microsome. The following applies: time 40 min, read-out: Stability. A general note: Liver microsomes are vesicles of endoplasmic reticulum, rich in cytochrome P450 enzymes.

Data set [2] in a line: Metabolic stability in rat liver microsomes assessed as compound remaining at 100 uM preincubated for 10 mins followed by NADPH addition and measured after 30 mins by LC-MS/MS analysis. The format is ADME, Microsome. The following applies: time 40 min, read-out: Stability.
A short description of data set [3]: Metabolic stability in mouse liver microsomes assessed as compound remaining at 100 uM preincubated for 10 mins followed by NADPH addition and measured after 30 mins by LC-MS/MS analysis. It counts as ADME, Microsome. The conditions noted are these: time 40 min, read-out: Stability.
Data set [4] can be described thus: Permeability of compound at 10 uM incubated for 4 hrs by PAMPA. The format is ADME. The following applies: read-out: permeability. (PAMPA measures passive passage across an artificial lipid membrane.)
The target in another data set is T1, P2X purinoceptor 1 (Homo sapiens, UniProt P51575).
T1 sequence (P51575 whole entry): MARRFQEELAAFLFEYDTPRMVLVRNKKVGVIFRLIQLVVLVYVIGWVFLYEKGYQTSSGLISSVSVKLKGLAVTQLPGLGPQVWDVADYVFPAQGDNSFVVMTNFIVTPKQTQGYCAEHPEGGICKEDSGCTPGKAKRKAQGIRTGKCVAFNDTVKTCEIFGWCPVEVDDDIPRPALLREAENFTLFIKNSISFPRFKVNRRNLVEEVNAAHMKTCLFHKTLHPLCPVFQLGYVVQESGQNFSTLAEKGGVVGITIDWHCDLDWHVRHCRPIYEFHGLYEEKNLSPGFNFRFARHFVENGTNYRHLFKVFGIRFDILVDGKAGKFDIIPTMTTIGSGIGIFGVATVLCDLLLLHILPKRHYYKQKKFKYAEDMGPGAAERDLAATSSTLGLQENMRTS
The data set can be described thus: Antagonist activity at human P2X1 receptor expressed in 1321N1 cells incubated for 30 mins in presence of ATP by Fluo-4 dye based microplate reader assay. The format is cell-based.

The next data set has as its target T2, P2X purinoceptor 4 (Homo sapiens, UniProt Q99571).
T2 sequence (Q99571 whole entry): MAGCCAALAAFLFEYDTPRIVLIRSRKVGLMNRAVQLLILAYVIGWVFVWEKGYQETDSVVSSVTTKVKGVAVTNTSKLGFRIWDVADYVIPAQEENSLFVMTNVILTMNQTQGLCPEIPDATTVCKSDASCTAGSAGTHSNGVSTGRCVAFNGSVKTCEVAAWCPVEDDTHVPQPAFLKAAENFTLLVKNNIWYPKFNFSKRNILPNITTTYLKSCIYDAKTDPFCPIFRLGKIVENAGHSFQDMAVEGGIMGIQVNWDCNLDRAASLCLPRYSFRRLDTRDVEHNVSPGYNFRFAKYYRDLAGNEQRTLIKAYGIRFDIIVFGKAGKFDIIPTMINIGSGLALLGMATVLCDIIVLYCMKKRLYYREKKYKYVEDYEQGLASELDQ
The data set can be described thus: Antagonist activity at human P2X4 receptor expressed in 1321N1 cells incubated for 30 mins in presence of ATP by Fluo-4 dye based microplate reader assay. The format is cell-based.

The target of the next data set is T3, P2X purinoceptor 7 (Homo sapiens, UniProt Q99572).
T3 sequence (Q99572 whole entry): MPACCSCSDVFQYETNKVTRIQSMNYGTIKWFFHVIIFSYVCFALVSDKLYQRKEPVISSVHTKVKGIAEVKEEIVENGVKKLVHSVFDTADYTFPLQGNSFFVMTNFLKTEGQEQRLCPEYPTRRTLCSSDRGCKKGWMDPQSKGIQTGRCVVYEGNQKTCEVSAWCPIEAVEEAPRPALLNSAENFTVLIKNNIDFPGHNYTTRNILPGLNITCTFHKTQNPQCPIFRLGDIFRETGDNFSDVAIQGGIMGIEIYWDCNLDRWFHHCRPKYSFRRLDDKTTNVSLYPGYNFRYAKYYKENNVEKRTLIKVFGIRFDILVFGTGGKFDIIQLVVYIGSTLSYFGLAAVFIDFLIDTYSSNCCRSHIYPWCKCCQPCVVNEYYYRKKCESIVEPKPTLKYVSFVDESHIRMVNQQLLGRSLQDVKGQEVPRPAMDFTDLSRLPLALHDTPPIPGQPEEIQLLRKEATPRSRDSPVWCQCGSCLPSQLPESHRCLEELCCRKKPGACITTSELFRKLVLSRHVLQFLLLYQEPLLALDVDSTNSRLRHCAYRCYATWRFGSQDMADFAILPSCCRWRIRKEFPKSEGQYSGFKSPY
The data set can be described thus: Antagonist activity at human P2X7 receptor expressed in 1321N1 cells incubated for 30 mins in presence of Bz-ATP by Fluo-4 dye based microplate reader assay. The format is cell-based.

A further data set concerns the target T4, P2X purinoceptor 3 (Homo sapiens, UniProt P56373).
T4 sequence (P56373 whole entry): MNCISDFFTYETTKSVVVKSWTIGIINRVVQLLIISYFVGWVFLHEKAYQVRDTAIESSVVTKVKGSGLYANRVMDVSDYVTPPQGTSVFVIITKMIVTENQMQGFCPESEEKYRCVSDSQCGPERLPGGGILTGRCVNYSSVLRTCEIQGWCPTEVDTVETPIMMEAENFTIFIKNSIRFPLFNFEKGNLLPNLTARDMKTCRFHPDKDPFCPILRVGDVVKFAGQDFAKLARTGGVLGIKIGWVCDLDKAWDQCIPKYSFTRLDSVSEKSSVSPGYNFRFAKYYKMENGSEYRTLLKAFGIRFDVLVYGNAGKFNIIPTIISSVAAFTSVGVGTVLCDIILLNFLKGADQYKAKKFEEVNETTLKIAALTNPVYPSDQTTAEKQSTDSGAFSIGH
The data set is described as follows: Antagonist activity at human P2X3R expressed in HEK293 cells incubated for 18 hrs by Fluo-4 dye based microplate reader assay.

The target in data set [5] is T5, P2X2/P2X3 heterotrimeric receptor (Homo sapiens, UniProt P56373+Q9UBL9).
T5 sequence (Q9UBL9 whole entry): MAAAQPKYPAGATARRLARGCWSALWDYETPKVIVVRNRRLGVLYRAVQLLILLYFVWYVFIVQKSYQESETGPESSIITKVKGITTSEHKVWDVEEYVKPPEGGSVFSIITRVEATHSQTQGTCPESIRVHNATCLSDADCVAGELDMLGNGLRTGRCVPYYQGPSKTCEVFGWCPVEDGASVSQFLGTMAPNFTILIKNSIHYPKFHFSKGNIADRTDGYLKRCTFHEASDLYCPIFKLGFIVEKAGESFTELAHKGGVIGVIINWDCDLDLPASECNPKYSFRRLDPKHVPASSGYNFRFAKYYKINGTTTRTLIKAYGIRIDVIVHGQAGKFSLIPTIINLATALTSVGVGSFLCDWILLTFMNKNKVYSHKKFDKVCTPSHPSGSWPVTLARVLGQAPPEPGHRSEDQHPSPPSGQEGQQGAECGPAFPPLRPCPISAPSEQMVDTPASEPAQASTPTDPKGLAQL
T5 sequence (P56373 whole entry): T4 sequence (P56373 whole entry)
The data set can be described thus: Antagonist activity at human P2X2/3R expressed in HEK293 cells incubated for 18 hrs by Fluo-4 dye based microplate reader assay.

Data set [6] has as its target T5, P2X2/P2X3 heterotrimeric receptor. The data set can be described thus: Antagonist activity at human P2X2/3 receptor expressed in HEK293 cells preincubated for 30 mins followed by alpha, beta me-ATP addition and measured for 10 mins by Fluo-8 dye based FLIPR assay.

Some results are limits rather than exact numbers.

Take `CC(=O)N1CCN(c2cc(N[C@H](C)c3ccc4ccccc4c3)n3nc(C4CCCC4)nc3n2)CC1`: the remaining at 0.5 h, 100 µM in [1] turned out to be 33.2%; in data set [2], 4.2%; in data set [3] it was 15.2%.
Take `CC(=O)N1CCN(c2cc(N[C@H](C)c3ccc4ccccc4c3)n3nc(C4CCC4)nc3n2)CC1`: the remaining at 0.5 h, 100 µM stood at 28.3% in data set [1], 0.2% in data set [2] and 18% in data set [3].
For `C[C@@H](Nc1cc(N2CCN(C(N)=O)CC2)nc2nc(C3CC3)nn12)c1ccc2ccccc2c1`, the remaining at 0.5 h, 100 µM in [1] stood at 50.2%; in data set [2], 0.3%; in data set [3], 50.6%. Moreover, the Papp at 4 h, 10 µM in data set [4] is under 0.0185 ×10⁻⁶ cm/s. Besides, the IC50 at P2X purinoceptor 1 was 4.28 µM; at P2X purinoceptor 4 it was over 10 µM; on P2X purinoceptor 7, over 10 µM.
For the molecule `CNC(=O)c1cc(F)c(-c2nc3cc(C)ccn3c2CC2CCCN(C(=O)OC)C2)c(F)c1` (single isomer, unassigned), the half-inhibitory concentration (IC50) on P2X purinoceptor 3 is 0.0155 µM; in [5], 5.06 µM; in [6], over 24 µM.
`NC(=O)N1c2ccccc2C=Cc2ccccc21` [CARBAMAZEPINE]: the Papp at 4 h, 10 µM in [4] turned out to be 5.41 ×10⁻⁶ cm/s.
With `CC(C)(C)NCC(O)COc1cccc2c1CC(O)C(O)C2` (stereo not drawn) [NADOLOL], the Papp at 4 h, 10 µM in data set [4] is under 0.0185 ×10⁻⁶ cm/s.

Broadly, the IC50 is the concentration needed to halve the response being measured.
